Measurements: US12550894B2, “Insecticidal formulation for vector and pest control with increased contact efficacy” (priority 2018, dated 2026)

Experiments:
Test in all cases: Long term contact efficacy against mosquitos (example 12)
Type in all cases: in vivo
Conditions in all cases: glazed tiles, 1 day after treatment
[1] = test system: Anopheles funestus
From the text: (§1) Glazed tiles have been treated with the WP 10 formulations as described in example 9 based on 4-[(5S)-5-(3,5-dichloro-4-fluorophenyl)-5-(trifluoromethyl)-4,5-dihydro-1,2-oxazol-3-yl]-N-[(4R)-2-ethyl-3-oxo-1,2-oxazolidin-4-yl]-2-methylbenzamide as described in Example 4 and then stored at ambient conditions. […] The contact bioassays have been conducted as outlined in example 9.

[2] = test system: Culex quinque fasciatus
From the text: as §1

[3] = test system: Aedes Aegypti
From the text: as §1

With `CCN1OC[C@@H](NC(=O)c2ccc(C3=NO[C@@](c4cc(Cl)c(F)c(Cl)c4)(C(F)(F)F)C3)cc2C)C1=O` [Reference crystalline spray, 4-[(5S)-5-(3,5-dichloro-4-fluorophenyl)-5-(trifluoromethyl)-4,5-dihydro-1,2-oxazol-3-yl]-N-[(4R)-2-ethyl-3-oxo-1,2-oxazolidin-4-yl]-2-methylbenzamide] the “Mortality [%] Anopheles funestus 24 h” value ([1]; 0.8 mg a.i./m^2) was 0%, the “Mortality [%] Anopheles funestus 24 h” value ([1]; 4 mg a.i./m^2) was 30% and the “Mortality [%] Anopheles funestus 24 h” value ([1]; 20 mg a.i./m^2) was 90%. For the same compound, the “Mortality [%] Culex quinque fasciatus 24 h” value ([2]; 0.8 mg a.i./m^2) was 25%, the “Mortality [%] Culex quinque fasciatus 24 h” value ([2]; 4 mg a.i./m^2) was 88% and the “Mortality [%] Culex quinque fasciatus 24 h” value ([2]; 20 mg a.i./m^2) was 100%. The “Mortality [%] Aedes Aegypti 24 h” value ([3]; 0.8 mg a.i./m^2) was 0%, the “Mortality [%] Aedes Aegypti 24 h” value ([3]; 4 mg a.i./m^2) was 89% and the “Mortality [%] Aedes Aegypti 24 h” value ([3]; 20 mg a.i./m^2) was 100%.
